Test results from article PMC10998878, “Inhibition of acyl-CoA binding protein (ACBP) by means of a GABAARγ2-derived peptide” (Cell Death & Disease, 2024).

Tested on: C57BL/6 mice
Assay: Concanavalin A-induced acute liver injury
Type: in vivo, mouse
Conditions: C57BL/6 male mice, peptide 5 mg/kg i.v. 90 min before concanavalin A 12 mg/kg i.v.
Method: GABAARγ2 peptides (5 mg/kg, i.v., dissolved in DMSO) were injected in 12-week-old C57BL/6 male mice 90 min before the injection of 12 mg/kg Concanavalin A (ConA, i.v., Sigma Aldrich, # C5275).
Fig. 7 In vivo inhibition of ACBP/DBI function by the GABAARγ2-derived eicosapeptide. A, B Appetite stimulation by ACBP/DBI. RecACBP/DBI alone or combined with GABAARγ2-derived eicosapeptides (EP) (WT or F77I) was administered in vivo by intravenous (i.v.) injection and individual cumulative food intake was measured after 30 min. GABAARγ2 peptides are represented as blue stars, while murine RecACBP/DBI is represented as red circles (A). […] C, D Immunoblots and densitometric quantification of LC3 lipidation in liver tissues from mice treated with GABAARγ2-derived eicosapeptides (EP) WT with or without the autophagy flux inhibitor leupeptin (n = 5 mice per group). p values were calculated by unpaired one-tailed Student’s t-test. E–G Inhibition of concanavalin A hepatotoxicity. GABAARγ2 WT peptide (or negative vehicle) was i.v. injected to C57BL/6 male mice followed by concanavalin A (or negative vehicle) administration 1.5 h later (E). Alanine transaminase (ALT) (F) and aspartate transaminase (AST) (G) activity in plasma was analyzed by means of a colorimetric assay (n = 7–9 mice per condition). p values were calculated by unpaired one-tailed Student’s t-test. ns: non-significant. Unt: Untreated.

INMEYTIDIFFAQTWYDRRL [GABAARγ2-EP-WT] was tested, and the “protection against concanavalin A hepatotoxicity, in words” value was “attenuate acute hepatotoxicity induced by concanavalin A”, the “plasma alanine aminotransferase (ALT) after concanavalin A” value (n = 7–9) was “significantly blunted the surge” and the “plasma aspartate aminotransferase (AST) after concanavalin A” value (n = 7–9) was “significantly blunted the surge”. For the same sequence, the “protection against concanavalin A hepatotoxicity, in words” value (listed as GABAARγ2-derived eicosapeptide) was “protected mice against the hepatotoxin concanavalin A”.
